Like-named read-outs stand apart in the source and are kept apart here.
Assays:
Type in all cases: cell-based, human
[1] = system: KG1a AML cells; experiment: Killing of KG1a AML cells in co-culture with HD-PBMC (flow cytometry); details: for KG1a cell death / reduction of living KG1a cells as compared to control: alone or with ICT01 0.1 μg/mL, HD-PBMC ratio 5:1, 2 days
Procedure: A) Sensitivity of KG1a cell line to Venetoclax, 5-Azacytidine or the combination. […] N=2 experiments. B) Mean±SEM relative number of Live KG1a AML cells monitored by flow cytometry after 3 days of co-culture with HD-PBMC (E:T ratio 25:1) treated with ICT01 (black) or its isotype control (hIgG1S, light grey) at 0.1 or 1 μg/mL. N=6, each dot represents one healthy donor. C) Schematic representation of treatment schedule for killing of KG1a AML cells by HD-PBMC. D) Relative number of Live KG1a AML cells (Mean±SEM) (left) and Frequency of Live KG1a AML cell relative to no Venetoclax or 5-Azacytidine treatment (Mean±SEM) (right) after 3 days of co-culture with HD-PBMC in presence of ICT01 (black) or its isotype control (hIgG1S, light grey) and treatment with Venetoclax, 5-Azacytidine or the combination. N=6, each dot represents one healthy donor, * p<0.05, Wilcoxon test.
KG1a cells were co-cultured with HD-PBMC at ratio 5:1 in presence of m20.1 or isotype control (0.1 μg/mL). After 6 hrs, indicated concentrations of Venetoclax, 5-Azacytidine or the combination were added to the culture. Relative number of live KG1a was monitored after 48 hrs by flow cytometry. […] N=6, each dot represents one healthy donor, * p<0.05, ** p<0.01, *** p<0.001, **** p<0.0001, 2 way ANOVA.
(§1) KG1a or MOLM14 AML cell lines were co-cultured with HD-PBMC at ratio 5:1 in presence of ICT01 or isotype control (0.1 μg/mL). After 6 hrs, indicated concentrations of ABT-737, Navitoclax or MIK665 were added to the culture. A) Relative numbers of live KG1a cells (Mean±SEM) after 2 days of co-culture with HD-PBMC in presence of ICT01 (black) or its isotype control hIgG1S (light grey) and treatment with indicated concentration of ABT-737. B) Relative numbers of live KG1a cells (Mean±SEM) after 2 days of co-culture with HD-PBMC in presence of ICT01 (black) or its isotype control hIgG1S (light grey) and treatment with indicated concentration of Navitoclax. C) Relative numbers of live MOLM14 cells (Mean±SEM) after 2 days of co-culture with HD-PBMC in presence of ICT01 (black) or its isotype control hIgG1S (light grey) and treatment with indicated concentration of MIK665. N=6 HD, each dot represents one healthy donor, * p<0.05, 2 way ANOVA.
The effect of Venetoclax and 5-Azacytidine on anti-BTN3A antibodies-induced killing of AML cell lines by Vγ9Vδ2 T cells was assessed by measuring the relative number of surviving target cells in a HD-PBMC-AML cell co-culture using flow cytometry.
Then, KG1a AML cells were stained with CellTrace CFSE Proliferation dye (ThermoFisher) to allow for specific detection by flow cytometry, counted, put into a co-culture with thawed HD-PBMC and treated with the anti-BTN3A mAbs ICT01 or m20.1 or their respective isotype controls (hIgG1S or mIgG1) in PBMC medium (RPMI 1640 Medium supplemented with 10% Fetal Bovine Serum (FBS) and 1 mM Sodium Pyruvate). On day one of culture, increasing concentrations of Venetoclax (0-0.4 μM), 5-Azacytidine (0-0.4 μM) or the combination were added. Cells were harvested on day 3 of co-culture, centrifuged at 1800 rpm for 5 minutes and then incubated 10 minutes at room temperature (RT) with 25 μl of FcR blocking reagent (Miltenyi Biotec) before adding 25 μL of the following antibody mix prepared in PBS+2% FBS+2 mM EDTA (FACS buffer): anti-CD56-BV421, CD19-BV421, CD14-BV785, Tyb-PE and CD3-AF700 antibodies for the identification of immune subsets, and a viability marker (LIVE/DEAD™ Fixable Dead Cell Stain) was added to distinguish live and dead cells. Cells were incubated 20 minutes at room temperature, washed once in FACS buffer and once in AnnexinV staining buffer. An AnnexinV-APC probe mixed with CountBright Absolute Counting Beads (Invitrogen) was added to determine apoptosis and relative cell numbers, followed by 15 minutes incubation at RT before flow cytometry analysis. […]

[2] = system: Vγ9Vδ2 T cells; experiment: Survival of Vγ9Vδ2 T cells in HD-PBMC (Caspase3/7 and dead cell marker, flow cytometry); details: HD-PBMC, 48 h; for CC50: in presence of isotype control (hIgG1S 1 μg/mL)
Procedure: The effect of ICT01 on the survival of Vγ9Vδ2 T cells upon treatment with Bcl-2 family member inhibitors was assessed in Peripheral Blood Mononuclear Cells from Healthy Donors (HD-PBMC) using the apoptotic marker Caspase3/7 and a dead cell marker in flow cytometry analysis.
Peripheral Blood Mononuclear Cells (PBMC) were isolated by Ficoll density gradient centrifugation of peripheral blood (EDTA-buffy coats) from healthy donors (HD, n=4-6), cultured in PBMC medium (RPMI 1640 Medium supplemented with 10% Fetal Bovine Serum (FBS), 1% Penicillin/Streptomycin and 1 mM Sodium Pyruvate) and treated with ICT01 or its isotype control (hIgG1S) used at 1 μg/mL in the presence or absence of increasing concentrations of Venetoclax (0-0.1 μM), 5-Azacytidine (0-0.4 μM) or the combination, or ABT-737 (0-1.875 μM), Navitoclax (0-1.875 μM) or MIK665 (0-1.875 μM). Cells were harvested on day 2, centrifuged at 1800 rpm for 5 minutes and then incubated 10 minutes at room temperature (RT) with 25 μl of FcR blocking reagent (Miltenyi Biotec) before adding 25 μL of the following antibody mix prepared in PBS+2% FBS+2 mM EDTA (FACS buffer): anti-CD4-BUV395, CD56-BV421, Vd2-PE, CD3-PE-CF594 and CD8-A700 antibodies for the identification of immune subsets, anti-CD25-BV650 and CD69-APC antibodies were added to monitor activation status of Vγ9Vδ2 T cells, and a viability marker (LIVE/DEAD™ Fixable Dead Cell Stain) was added to distinguish live from dead cells. Cells were incubated 20 minutes at room temperature (RT) and washed 2 times with FACS buffer. A Caspase3/7 Green detection reagent (ThermoFisher) was added to determine apoptosis and cells were incubated for 30 minutes at RT before flow cytometry analysis.
In a similar experiment, freshly isolated PBMC were stimulated with ICT01 or its isotype control hIgG1S for 1 day prior to a 2 day-treatment with Venetoclax (FIG. 3a). The number of live Vγ9Vδ2 T cells was assessed by flow cytometry at the end of the incubation time.

[3] = system: MOLM14 cells; experiment: Killing of MOLM14 AML cells in co-culture with HD-PBMC (flow cytometry); details: alone or with ICT01 0.1 μg/mL, HD-PBMC ratio 5:1, 2 days
Procedure: as §1
The effect of the three Bcl-2 family member inhibitors ABT-737, Navitoclax and MIK665, on ICT01-induced killing of AML cell lines by Vγ9Vδ2 T cells was assessed by measuring the relative number of surviving target cells in a HD-PBMC-AML cells co-culture using flow cytometry.
For assays using ABT-737 or Navitoclax, KG1a cells were used. […] Therefore, MOLM14 cells, which express MCL-1, were used in killing assays assessing the activity of ICT01 combined with MIK665.

[4] = Bcl-2 family inhibitor at 0.25 μM
[5] = Bcl-2 family inhibitor at 0.5 μM
[6] = in presence of ICT01 (1 μg/mL), read-out: EC50 of Vγ9Vδ2 T cell death
[7] = Homo sapiens, T-cell, read-out: EC50 of Vγ9Vδ2 T cell death
[8] = Homo sapiens, T-cell, inhibitor alone (FIG. 2a), read-out: EC50 of apoptosis and death of Vγ9Vδ2 T cells

SMILES	KG1a cell death / reduction of living KG1a cells as compared to control [1, 4]	KG1a cell death / reduction of living KG1a cells as compared to control [1, 5]	EC50 [2, 6] [µM]	CC50 [2, 7] [µM]	EC50 [2, 8] [µM]	cell death / reduction of living MOLM14 cells as compared to control ([3]; MIK665 at 0.025 μM)	cell death / reduction of living MOLM14 cells as compared to control ([3]; MIK665 at 0.05 μM)	sensitivity of KG1a to MIK665 treatment ([1]; cell line does not express MCL-1)
CN(C)CC[C@H](CSc1ccccc1)Nc1ccc(S(=O)(=O)NC(=O)c2ccc(N3CCN(Cc4ccccc4-c4ccc(Cl)cc4)CC3)cc2)cc1[N+](=O)[O-] [ABT-737]	~ 34%	~ 54%	0.46	0.23	0.24	–	–	–
COc1ccccc1-c1nccc(COc2ccccc2C[C@@H](Oc2ncnc3sc(-c4ccc(F)cc4)c(-c4ccc(OCCN5CCN(C)CC5)c(Cl)c4C)c23)C(=O)O)n1 [MIK665, (R)-2-((5-(3-chloro-2-methyl-4-(2-(4-methylpiperazin-1-yl)ethoxy)phenyl)-6-(4-fluorophenyl)thieno[2,3-d]pyrimidin-4-yl)oxy)-3-(2-((2-(2-methoxyphenyl)pyrimidin-4-yl)methoxy)phenyl)propanoic acid]	–	–	0.78	0.24	0.24	~ 52%	~ 72%	completely resistant
CC1(C)CCC(c2ccc(Cl)cc2)=C(CN2CCN(c3ccc(C(=O)NS(=O)(=O)c4ccc(N[C@H](CCN5CCOCC5)CSc5ccccc5)c(S(=O)(=O)C(F)(F)F)c4)cc3)CC2)C1 [Navitoclax, 4-[4-[[2-(4-chlorophenyl)-5,5-dimethylcyclohexen-1-yl]methyl]piperazin-1-yl]-N-[4-[[(2R)-4-morpholin-4-yl-1-phenylsulfanylbutan-2-yl]amino]-3-(trifluoromethylsulfonyl)phenyl]sulfonylbenzamide]	~ 51%	~ 71%	0.2	0.16	0.16	–	–	–

— patent publication US20260256909A1, “COMBINATION OF A BTN3A ACTIVATING ANTIBODY, A BCL2 INHIBITOR AND HYPOMETHYLATING AGENT FOR USE IN TREATING CANCER” (Imcheck Therapeutics, priority 2022, published 2026)
